Source: ChEMBL document CHEMBL3120120, “Toxicological and pharmacological evaluation, antioxidant, ADMET and molecular modeling of selected racemic chromenotacrines {11-amino-12-aryl-8,9,10,12-tetrahydro-7H-chromeno[2,3-b]quinolin-3-ols} for the potential prevention and treatment of Alzheimer's disease” (Eur J Med Chem, 2014)
pEC50, pIC50, pKi: −log10 of the molar value. The source made the active and inactive calls. The rule behind the calls is not given here.

What was measured:
[1] = Neuroprotective activity in Wistar rat embryo primary cortical neuron assessed as reversal of SNP-induced ROS formation at 10 uM after 24 hrs by spectrofluorometric analysis relative to control; format: functional, Cerebral cortex neuron
Glycine max = assay: Inhibition of soybean lipoxygenase assessed as conversion of sodium linoleate to 13-hydroperoxylinoleic acid at 100 uM by UV absorbance assay
in vitro [2] = details: human, HepG2 cells
Description: Hepatotoxicity against human HepG2 cells assessed as cell viability at 1 uM after 24 hrs by MTT assay relative to control

[3] = Toxicity in Wistar rat embryo primary cortical neuron assessed as increase in ROS formation at >25 uM; format: cell-based; details: cerebral cortex neuron
in vitro [4] = details: human, HepG2 cells; remark: listed apart in the source
Description: Hepatotoxicity against human HepG2 cells assessed as cell viability at 300 uM after 24 hrs by MTT assay relative to control

in vitro [5] = details: human, HepG2 cells; remark: listed apart in the source
Description: Hepatotoxicity against human HepG2 cells assessed as cell viability at 30 uM after 24 hrs by MTT assay relative to control

in vitro [6] = details: human, HepG2 cells; remark: listed apart in the source
Description: Hepatotoxicity against human HepG2 cells assessed as cell viability at 3 uM after 24 hrs by MTT assay relative to control

in vitro [7] = details: human, HepG2 cells; remark: listed apart in the source
Description: Hepatotoxicity against human HepG2 cells assessed as cell viability at 10 uM after 24 hrs by MTT assay relative to control

Acetylcholinesterase [8] = target: T1, Acetylcholinesterase (Electrophorus electricus, UniProt O42275); assay: Noncompetitive inhibition of electric eel AchE using acetylcholine as substrate preincubated for 15 mins followed by substrate addition measured for 5 mins by Dixon plot analysis
[9] = Neuroprotective activity in Wistar rat embryo primary cortical neuron assessed as reduction of SNP-induced cell death by measuring cell viability after 24 hrs by XTT assay relative to control; format: functional, cell-based; details: Cerebral cortex neuron
[10] = target: Acetylcholinesterase (Electrophorus electricus) (UniProt O42275); assay: Noncompetitive inhibition of electric eel AchE using acetylcholine as substrate at 0.01 to 10 uM preincubated for 15 mins followed by substrate addition measured for 5 mins by Lineweaver-Burk plot analysis
[11] = Neuroprotective activity in Wistar rat embryo primary cortical neuron assessed as reduction of SNP-induced cell death by measuring cell viability at 100 uM after 24 hrs by XTT assay relative to control; format: functional, Cerebral cortex neuron
[12] = Neuroprotective activity in Wistar rat embryo primary cortical neuron assessed as reduction of oligomycin A-induced cell death by measuring cell viability after 24 hrs by XTT assay relative to control; format: functional, cell-based; details: Cerebral cortex neuron
in vitro [13] = details: human, HepG2 cells; remark: listed apart in the source
Description: Hepatotoxicity against human HepG2 cells assessed as cell viability at 100 uM after 24 hrs by MTT assay relative to control

[14] = Antioxidant activity against AAPH-induced lipid peroxidation assessed as inhibition of conjugated diene hydroperoxide production at 100 uM; format: functional
HepG2 [15] = assay: Hepatotoxicity against human HepG2 cells assessed as LDH release at 1 to 300 uM; format: toxicity, cell-based; details: hepg2, 300 µM
[16] = Neuroprotective activity in Wistar rat embryo primary cortical neuron using DEVD-AMC as flurogenic substrate assessed as inhibition of SNP-induced cell necrosis by measuring caspase 3 activity at 25 to 50 uM by spectroflurometric analysis relative to control; format: functional, Cerebral cortex neuron
[17] = Neuroprotective activity in Wistar rat embryo primary cortical neuron assessed as reduction of oligomycin A-induced cell death by measuring cell viability at 100 uM after 24 hrs by XTT assay relative to control; format: functional, Cerebral cortex neuron
[18] = Neuroprotective activity in Wistar rat embryo primary cortical neuron assessed as reversal of SNP-induced ROS formation at 1 uM after 24 hrs by spectrofluorometric analysis relative to control; format: functional, Cerebral cortex neuron
[19] = Neuroprotective activity in Wistar rat embryo primary cortical neuron using DEVD-AMC as flurogenic substrate assessed as inhibition of oligomycin A-induced cell death by measuring caspase 3 activity at 25 to 50 uM by spectroflurometric analysis relative to control; format: functional, Cerebral cortex neuron
HepG2 [20] = assay: Hepatotoxicity against human HepG2 cells assessed as cell viability after 24 hrs by MTT assay; format: toxicity, cell-based; details: hepg2, 24 h
SH-SY5Y = assay: Antioxidant activity in human SH-SY5Y cells assessed as decrease in H2O2-induced MDA level after 8 hrs by TBARS assay; format: functional, cell-based
Cerebral cortex neuron [21] = assay: Neuroprotective activity in Wistar rat embryo primary cortical neuron using DEVD-AMC as flurogenic substrate assessed as inhibition of oligomycin A-induced cell death by measuring caspase 3 activity at 25 to 50 uM by spectroflurometric analysis in presence of serum relative to control; format: functional, cell-based
Acetylcholinesterase [22] = target: T1, Acetylcholinesterase
Description: Inhibition of electric eel AchE using acetylcholine as substrate preincubated for 15 mins followed by substrate addition measured for 5 mins by Ellman method

Cerebral cortex neuron [23] = assay: Neuroprotective activity in Wistar rat embryo primary cortical neuron using DEVD-AMC as flurogenic substrate assessed as inhibition of SNP-induced cell necrosis by measuring caspase 3 activity at 25 to 50 uM by spectroflurometric analysis in presence of serum relative to control; format: functional, cell-based
[24] = Neuroprotective activity in Wistar rat embryo primary cortical neuron assessed as reversal of SNP-induced ROS formation at 25 uM after 24 hrs by spectrofluorometric analysis relative to control; format: functional, Cerebral cortex neuron

T1 sequence (O42275 whole entry): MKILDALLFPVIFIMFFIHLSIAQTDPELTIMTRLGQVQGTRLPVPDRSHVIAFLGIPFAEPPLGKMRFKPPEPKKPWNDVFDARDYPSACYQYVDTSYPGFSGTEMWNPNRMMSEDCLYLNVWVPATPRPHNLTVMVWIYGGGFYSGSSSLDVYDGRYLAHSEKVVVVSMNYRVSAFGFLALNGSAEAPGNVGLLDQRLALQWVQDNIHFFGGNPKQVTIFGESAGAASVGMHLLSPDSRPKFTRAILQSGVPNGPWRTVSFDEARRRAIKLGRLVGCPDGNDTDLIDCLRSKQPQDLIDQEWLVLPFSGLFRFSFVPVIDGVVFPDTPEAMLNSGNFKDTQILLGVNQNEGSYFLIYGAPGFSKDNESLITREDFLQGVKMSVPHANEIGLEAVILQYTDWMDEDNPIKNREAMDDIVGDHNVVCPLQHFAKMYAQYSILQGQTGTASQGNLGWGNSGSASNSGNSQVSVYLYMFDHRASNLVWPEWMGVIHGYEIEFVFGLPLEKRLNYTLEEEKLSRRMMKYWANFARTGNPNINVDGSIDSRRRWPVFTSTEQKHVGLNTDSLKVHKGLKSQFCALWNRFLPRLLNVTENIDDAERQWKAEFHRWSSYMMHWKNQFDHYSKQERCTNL
Chain of Acetylcholinesterase (Electrophorus electricus) (O42275 24-633 limits assumed): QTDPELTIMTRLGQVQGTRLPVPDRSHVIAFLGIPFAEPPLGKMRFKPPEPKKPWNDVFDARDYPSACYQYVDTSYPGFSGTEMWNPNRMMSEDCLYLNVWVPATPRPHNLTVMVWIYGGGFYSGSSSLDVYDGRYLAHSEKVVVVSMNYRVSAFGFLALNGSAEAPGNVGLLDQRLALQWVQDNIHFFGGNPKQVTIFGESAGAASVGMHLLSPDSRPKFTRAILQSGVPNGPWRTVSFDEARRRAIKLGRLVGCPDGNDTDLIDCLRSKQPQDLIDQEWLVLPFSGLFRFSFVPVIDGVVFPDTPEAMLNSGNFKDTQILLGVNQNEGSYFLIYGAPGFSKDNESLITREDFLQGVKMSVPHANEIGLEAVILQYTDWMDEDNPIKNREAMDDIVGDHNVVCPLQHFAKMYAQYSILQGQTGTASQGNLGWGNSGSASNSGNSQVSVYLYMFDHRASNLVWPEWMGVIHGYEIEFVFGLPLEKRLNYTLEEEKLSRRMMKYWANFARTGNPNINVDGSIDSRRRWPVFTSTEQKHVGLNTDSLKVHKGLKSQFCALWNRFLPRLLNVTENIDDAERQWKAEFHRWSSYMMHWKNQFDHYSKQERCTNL

Compound	viability at 24 h, 1 µM (in vitro [2]) [%]	viability at 24 h, 300 µM (in vitro [4]) [%]	viability at 24 h, 30 µM (in vitro [5]) [%]	viability at 24 h, 3 µM (in vitro [6]) [%]	viability at 24 h, 10 µM (in vitro [7]) [%]	viability at 24 h, 100 µM (in vitro [13]) [%]	Activity (HepG2 [20])	pIC50 (Acetylcholinesterase [22])	other results
COc1cc(C2c3ccc(O)cc3Oc3nc4c(c(N)c32)CCCC4)cc(OC)c1OC (racemic)	102	103	100	98.7	101	98.3	Dose-dependent effect	7.39	fold change (FC) [1]: 1.93; inhibition (Glycine max): 18%; Activity [3]: Toxic; pKi (Acetylcholinesterase [8]): 7.33; pEC50 [9]: 5.46; inhibition [10]: Active; Activity [11]: 148.12%; pEC50 [12]: 5.95; inhibition [14]: 85%; Activity (HepG2 [15]): Non-toxic; fold change (FC) [16]: 3.43; Activity [17]: 81.08%; fold change (FC) [18]: 2.31; fold change (FC) [19]: 1.83; Activity (SH-SY5Y): Dose-dependent effect; inhibition (Cerebral cortex neuron [21]): Active; inhibition (Cerebral cortex neuron [23]): Active; fold change (FC) [24]: 1.81
Nc1c2c(nc3c1C(c1ccc(F)cc1)c1ccc(O)cc1O3)CCCC2 (racemic)	91	50.1	55.7	75.1	62.8	55.5	Dose-dependent effect	6.99	–
COc1ccc(C2c3ccc(O)cc3Oc3nc4c(c(N)c32)CCCC4)cc1 (racemic)	97.3	75.5	95	96.8	94.1	85.9	Dose-dependent effect	6.28	–
CN(C)c1ccc(C2c3ccc(O)cc3Oc3nc4c(c(N)c32)CCCC4)cc1 (racemic)	99	80.3	85.5	88.5	86.1	85.5	Dose-dependent effect	6.54	–
Cc1ccc(C2c3ccc(O)cc3Oc3nc4c(c(N)c32)CCCC4)cc1 (racemic)	96.9	47.9	74.3	89.5	85.6	71.7	Dose-dependent effect	7.19	–
Nc1c2c(nc3c1C(c1ccccc1)c1ccc(O)cc1O3)CCCC2 (racemic)	99.5	49.6	62.4	67.4	66.2	55.8	Dose-dependent effect	6.26	–
CC(Cc1ccc(O)c(O)c1)C(C)Cc1ccc(O)c(O)c1 (stereo unspecified)	–	–	–	–	–	–	–	–	inhibition (Glycine max): 84%
Cc1c(C)c2c(c(C)c1O)CCC(C)(C(=O)O)O2 (stereo unspecified)	–	–	–	–	–	–	–	–	inhibition [14]: 63%
Nc1c2c(nc3c1C(c1ccc(Br)cc1)c1ccc(O)cc1O3)CCCC2 (racemic)	99	61.5	76.9	87.4	84.8	74.4	Dose-dependent effect	8.15	–
